Reference: publication PMC5473904, “Epigenetic and antitumor effects of platinum(IV)-octanoato conjugates” (Scientific Reports, 2017)

Columns and labels:
[1] = system: DNA methylation in HCT-116 cells; experiment: DNA methylation analysis (Imprint methylated DNA quantification kit); format: cell-based, human; conditions: HCT-116, 1 µM
Experimental: Human colon adenocarcinoma cells HCT-116 were chosen as the model cellular system suitable for DNA methylation analysis because: (i) this human colorectal cancer cell line has been used as a prototypic model for analyses of the genetic basis of cancer, and the role of epigenetic changes in tumorigenesis; (ii) they have a propensity to both global DNA hypomethylation and to silence genes through promoter focal hypermethylation, [21]. HCT-116 cells were treated with the compounds at the concentrations indicated in Fig. 4A for 24 or 72 h and DNA was isolated for the complete methylation analysis as described in the experimental section. Decitabine (5-aza-2′-deoxycytidine), a hypomethylating agent which hypomethylates DNA by inhibiting DNMT, was used in these experiments as a […]. The IC50 values found for this agent in HCT-116 cells (the drug-treatment period was 72 h) was (7.5 ± 0.3) µM (Table 1).
Figure 4 Analysis of DNA methylation. (A) DNA was isolated from HCT-116 cells after the exposure to the agents at the concentrations indicated in the graph for 24 or 72 h. The levels of DNA methylation in the control was taken as 100%. The bars represent mean values from three independent experiments each performed in octuplicate. The error bars are the SDs. (B) DNMT activity in colon carcinoma cells HCT-116 treated for 24 h with the compounds tested in the present work. The DNMT activity in the control, untreated cells was taken as 100%. Error bars are the SDs and the stars at the top of bars denote a significant difference from the control with (*p < 0.05; **p < […]), calculated using […] student’s t-test. The bars represent mean values from three independent experiments, each performed in quadruplicate.
Human colon carcinoma cells (HCT-116) were seeded at the density 1.5 × 10^6 cells/dish. […] The DNA content in each sample was determined by UV spectrophotometry. DNA (200 ng) from the samples was loaded to the Imprint methylated DNA quantification kit (Sigma-Aldrich, USA). The level of methylated DNA was proportional to the absorbance measured at 450 nm.

[2] = system: HCT-116 human colorectal carcinoma cells; experiment: MTT cytotoxicity, 72 h; format: cell-based; conditions: MTT, 72 h, platinum complexes and decitabine
Experimental: (§1) Cytotoxic activity of the compounds tested in the present work was screened on the panel of malignant and nonmalignant cell lines using the colorimetric MTT assay and 72 h of drug incubation period.
(§2) Cell death was evaluated using a system based on the tetrazolium compound MTT [3-(4,5-dimethyl-2-thiazolyl)-2,5-diphenyl-2H-tetrazolium bromide]. The cells were seeded in 96-well tissue culture plates at a density of 10^4 A2780cisR, LNCaP, HSF cells/well, 3 × 10^3 CHO-K1 or 4 × 10^3 MCF7, HCT-116 and MRC5 pd30 cells/well in 100 μL of medium. After overnight incubation (16 h), the cells were treated with the compounds in a final volume of 200 μL/well. After additional 72 h, 10 μL of a freshly diluted MTT solution (2.5 mg mL^−1) was added to each well, and the plate was incubated at 37 °C in a humidified 5% CO2 atmosphere for 4 h. At the end of the incubation period, the medium was removed, and the formazan product was dissolved in 100 μL of DMSO. The cell viability was evaluated by measurement of the absorbance at 570 nm, using an Absorbance Reader SUNRISE TECAN SCHOELLER. IC50 values were calculated from curves constructed by plotting cell survival (%) versus drug concentration (μM). All experiments were made in triplicate. The reading values were converted to the percentage of control (% cell survival). Cytotoxic effects were expressed as IC50.

[3] = system: A2780 human ovarian carcinoma cells; experiment: MTT cytotoxicity, 72 h; format: cell-based; conditions: MTT, 72 h, platinum complexes
[4] = system: PNT1a; experiment: MTT cytotoxicity, 72 h; format: cell-based; conditions: platinum complexes
[5] = system: A2780 cells; experiment: Cellular platinum accumulation/distribution by ICP-MS; format: cell-based, human; conditions: 0.35 µM
Experimental: (§3) Cellular concentrations of platinum were determined by inductively coupled plasma mass spectrometry (ICP-MS) after 24 h of exposure to the complexes at the concentration of 0.35 µM.
(§4) Cellular uptake studies were also carried out to measure the accumulation of platinum species in cytosol and nucleus. […] The platinum levels in each pool were measured by ICP-MS. The extent of accumulation of both OA conjugated Pt(IV) prodrugs into the cytosol and nucleus fractions was markedly higher than that of cisplatin or Pt(IV)diAc.
(§5) The cells were seeded in 150 cm^2 culture flasks at a density 1 × 10^7 cells/flask (67 000 cells/cm^2). After 48-h incubation, the cells were treated with the compounds (0.35 μM) for 24 h. The attached cells were washed twice with PBS (4 °C). Seventy-five percent of cells were used for analysis of platinum bound to DNA, remaining 25% were used for estimations of cellular accumulation of platinum. Cell pellets were digested by a high-pressure microwave digestion system (MARS5, CEM) with HCl to give a fully homogenized solution, and final platinum content was determined by ICP-MS. The analysis with the aid of ICP-MS was performed using Agilent 7500 (Agilent, Japan) or Thermo Optek X Series.
(§6) A2780 cells were seeded in 100 mm tissue culture dishes (3 × 10^6 cells) and grown for 48 h to 80–90% confluence. Cells were harvested after 24 h of treatment. Concretely, the dishes were washed two times with ice-cold PBS and the cells scraped into tubes and centrifuged for 10 min at 0 °C (200 g). The pellets were resuspended in the lysis buffer [Tris·HCl (10 mM, pH 8.0), KCl (60 mM), EDTA (1.2 mM), DTT (1 mM), phenylmethanesulfonyl fluoride (PMSF, 0.1 mM), NP-40 (0.04%)] for 10 min on ice and centrifuged for 4 min at 0 °C (800 g). Cytosolic fraction was separated for platinum ICP-MS analysis, and protein concentration was determined by Bradford assay. The pellets were rinsed with the above lysis buffer without PMSF and NP-40 and centrifuged for another 4 min at 0 °C (300 g). The pellets were resuspended in 50 µL nuclear extraction buffer [Tris·HCl (20 mM, pH 8.0), NaCl (420 mM), MgCl2 (0.7 mM), EDTA (0.25 mM), glycerol (25%)] and incubated for 30 min at 4 °C, continuously mixed on end-over-end roller, and then centrifuged for 15 min at 0 °C (13000 g). Protein concentration in nuclear extracts was determined by the Bradford assay, and stored at −80 °C until analysis.

[6] = system: HCT-116 cells; experiment: as above; format: cell-based, human; conditions: HCT-116, 24 h exposure, 0.35 µM
Experimental: as §3, §4, §5, §6

[7] = system: HCT-116 cells; experiment: as above; format: cell-based, human; conditions: HCT-116, 24 h, 0.35 µM
[8] = system: LNCaP human prostate adenocarcinoma cells; experiment: MTT cytotoxicity, 72 h; format: cell-based; conditions: platinum complexes
Experimental: as §1, §2

[9] = system: HSF human primary skin fibroblasts; experiment: MTT cytotoxicity, 72 h; format: cell-based; conditions: platinum complexes
Experimental: as §1, §2

[10] = system: MRC-5 (PD30) human fetal lung fibroblasts; experiment: MTT cytotoxicity, 72 h; format: cell-based; conditions: platinum complexes
Experimental: as §1, §2

[11] = system: A2780cisR human ovarian carcinoma cells; experiment: MTT cytotoxicity, 72 h; format: cell-based
Experimental: as §1, §2

[12] = system: CHO-K1 Chinese hamster ovary cells; experiment: MTT cytotoxicity, 72 h; format: cell-based; conditions: platinum complexes
Experimental: as §1, §2

[13] = system: MCF-7 human breast cancer cells; experiment: MTT cytotoxicity, 72 h; format: cell-based; conditions: platinum complexes
Experimental: as §1, §2

[14] = system: DNA from HCT-116 cells; experiment: Platinum content on DNA isolated from treated cells (ICP-MS); format: cell-based, human; conditions: HCT-116, 24 h, 0.35 µM
Experimental: (§7) As for antitumor cisplatin and its direct derivatives, DNA is believed to be the target also for Pt(IV) prodrugs examined in the present work.
(§8) The cells were seeded in 150 cm^2 culture flasks at a density 1 × 10^7 cells/flask (67 000 cells/cm^2). After 48-h incubation, the cells were treated with the compounds (0.35 μM) for 24 h. The attached cells were washed twice with PBS (4 °C). As mentioned in the preceding paragraph, 75% of cells were used for analysis of platinum bound to DNA, remaining 25% were used for estimations of cellular accumulation of platinum. Cells were then lysed in DNAzol (DNAzol® genomic DNA isolation reagent, MRC) supplemented with RNase A (100 μg mL^−1). The genomic DNA was precipitated from the lysate with ethanol, dried and resuspended in water. The DNA content in each sample was determined by UV spectrophotometry. The DNA samples were digested in the presence of hydrochloric acid (11 M) using high-pressure microwave mineralization system (MARS5, CEM). The platinum content was determined by ICP-MS. Experiments were performed in triplicate and the values are the means ± SD.

[15] = system: DNA from A2780 cells; experiment: as above; format: cell-based, human; conditions: A2780, 24 h, 0.35 µM
Experimental: as §7, §8

[16] = parameters: method as in PMID 25888926; conditions: valproato complexes; cited from earlier work
[17] = system: Lewis lung carcinoma (LLC); experiment: In vivo antitumor activity in Lewis lung carcinoma; conditions: LLC in C57BL mice; for Average tumor weight (mean ± SD): 20 mg kg^−1 daily orally day 7–14, day 15; for Inhibition of tumor growth: 20 mg kg^−1 daily orally day 7–14, day 15, referred to control animals
Experimental: Xenograft LLC tumors were grown in C57BL mice that were subsequently treated with […] of either Pt(IV) complex. Pt(IV) prodrugs were administered by oral gavage by taking advantage of their excellent stability, enabling in vivo oral formulation making platinum therapy safer lessening side effects and partially overcoming resistance to platinum(II) drugs, [35]. The schedule of Pt(IV) prodrug administration in vivo was initially determined by assessing the total dose that could be injected without undue toxicity in nontumor-bearing C57BL mice. From day 7 after tumor inoculation, when tumors became visible, tumor-bearing mice received daily doses of the Pt(IV) derivatives (20 mg kg^−1, by oral gavage).
The LLC cell line was purchased from ECACC, United Kingdom. The LLC cell line was maintained in DMEM (Euroclone) supplemented with 10% heat-inactivated fetal bovine serum (FBS; Euroclone), 10 mM L-glutamine, 100 U mL^−1 penicillin, and 100 μg mL^−1 streptomycin in a 5% CO2 air incubator at 37 °C. The LLC was implanted intramuscularly (im) as a 2 × 10^6 cell inoculum into the right hind leg of 8-week old male and female C57BL mice (24 ± 3 g body weight). […] At day 15, animals were sacrificed, the legs were amputated at the proximal end of the femur, and the inhibition of tumor growth was determined according to the difference in weight of the tumor-bearing leg, and the healthy leg of the animals expressed as a percentage referred to the control animals. Body weight was measured every two days and was taken as a parameter for systemic toxicity. All the values are the means ± SD of not less than three measurements.

[18] = rough estimate from Tables 2 and 3

Question: Which results are given for `Nc1ncn([C@H]2C[C@H](O)[C@@H](CO)O2)c(=O)n1` [Decitabine, 5-aza-2′-deoxycytidine, reference compound]?
Answer: Change of DNA methylation [1]: considerably lowered level of DNA methylation; IC50 ([2]; Homo sapiens, HCT-116): 7500 ± 300 nM

Question: What does the source list for `CCCCCCCC(=O)[O][Pt]([NH2])([NH2])([Cl])([Cl])[O]C(C)=O` [Pt(IV)AcOA, cis, cis, trans-[Pt(IV)(NH3)2Cl2AcOA]]?
Answer: IC50 [3]: 350 ± 50 nM; IC50 [4]: 150 ± 3 nM; Platinum in cytosol ([5]; A2780, 24 h): 28 ± 4 pg Pt/µg protein; Platinum in nucleus ([5]; A2780, 24 h): 27 ± 4 pg Pt/µg protein; Total cellular platinum accumulation ([5]; A2780, 24 h exposure): 4.0 ± 0.9 ng Pt/10^6 cells; Total cellular platinum accumulation [6]: 6.0 ± 0.9 ng Pt/10^6 cells; Platinum in cytosol [7]: 48 ± 2 pg Pt/µg protein; Platinum in nucleus [7]: 55 ± 7 pg Pt/µg protein; IC50 [8]: 270 ± 100 nM; IC50 [9]: 957 ± 19 nM; IC50 [10]: 409 ± 215 nM; RF, resistance factor ([11]; IC50 (resistant, A2780cisR)/IC50 (sensitive, A2780)): 1.1; IC50 ([11]; MTT, 72 h, platinum complexes): 370 ± 60 nM; IC50 [12]: 1100 ± 200 nM; IC50 [13]: 500 ± 40 nM; IC50 [2]: 930 ± 20 nM; Platinum content on DNA [14]: 19.8 ± 3.6 pg Pt/µg DNA; Platinum on DNA, % from the total intracellular Pt amount [14, 18]: 4.8%; Platinum content on DNA [15]: 8.0 ± 1.4 pg Pt/µg DNA; Platinum on DNA, % from the total intracellular Pt amount [15, 18]: 5.0%

Question: With `CCCC(CCC)C(=O)[O][Pt]([NH2])([NH2])([Cl])([Cl])[O]C(C)=O` [Pt(IV)AcVPA, reference compound] as the compound, how does the logP [16] read?
Answer: 0.17

Question: With `CCCC(=O)[O][Pt]([NH2])([NH2])([Cl])([Cl])[O]C(=O)CCC` [Pt(IV)diBA, cis, cis, trans-[Pt(IV)(NH3)2Cl2(BA)2]] as the compound, how does the “Average tumor weight (mean ± SD)” value [17] read?
Answer: 0.109 ± 0.05 g

Question: What about the “Inhibition of tumor growth” value [17] of the same compound?
Answer: 80%

Question: For `CCCCCC(=O)[O][Pt]([NH2])([NH2])([Cl])([Cl])[O]C(=O)CCCCC` [Pt(IV)diHA, cis, cis, trans-[Pt(IV)(NH3)2Cl2(HA)2]], which “Average tumor weight (mean ± SD)” value [17] is on record?
Answer: 0.088 ± 0.06 g

Question: What about the “Inhibition of tumor growth” value [17] of the same compound?
Answer: 84%
